# Source: publication PMC9760738, “Pharmacokinetics, absorption, distribution, metabolism and excretion of the MEK inhibitor zapnometinib in rats” (Frontiers in Pharmacology, 2022)
# Like-named read-outs stand apart in the source and are kept apart here.
# What was measured:
# [1] = Plasma total radioactivity pharmacokinetics after single oral 30 mg/kg [14C]-zapnometinib, Sprague-Dawley rats (Group 1); type: in vivo, rat
# Procedure: Oral doses of [^14C]-zapnometinib were administered as a suspension in 5% DMSO (v/v), 30% PEG 400 (v/v) and 7.5% (w/v) Captisol in water at a dose level of 30 mg/kg to male and female rats by gastric intubation at a dose volume of 4 ml/kg body weight. The selected dose level (30 mg/kg) was below the no observed adverse effect level (100 mg/kg), the formulation was selected based on data obtained in other nonclinical studies. The radioactive dose administered to each animal was quantified from the weight (excretion studies only) or volume of dosing formulation given, and its mean measured radioactivity concentration. The weight of test compound administered to each rat was determined from the radioactive dose administered and the specific activity of the test material.
# After single oral doses of [^14C]-zapnometinib to three male and three female rats, a blood sample (ca 220 µL) was taken from each animal, via the jugular or tail vein at each of the following time points: 0.25, 0.5, 1, 2, 4, 8, 24, 48, 72, 96, 120 and 168 h after dose administration. All blood samples were delivered into K2EDTA tubes and centrifuged (ca 2000 ×g at 4°C for 10 min) to obtain plasma; blood cells were discarded. After collection of the terminal sample, rats were killed by cervical dislocation and the carcasses discarded.
# Radioactivity was measured by liquid scintillation analysis using Wallac® 1409 automatic liquid scintillation counters. Samples were prepared according to the company’s SOP (see Supplementary Methods). Briefly, replicate weighed samples were mixed with Ultima Gold™ scintillation cocktail (PerkinElmer, United States) for the measurement of radioactivity. Radioactivity in amounts less than twice that of the background concentration in the sample under investigation was below the limit of accurate quantification (BLQ).
# Weight, volume, and radioactivity concentration (liquid scintillation analysis) results relating to the analysis of biological samples generated during this study were acquired and processed using DEBRA, a Laboratory Information Management System (v 5.5.4). Pharmacokinetic parameters were calculated using the computer program Phoenix™ WinNonlin version 8.3 (Pharsight Corporation, United States). Areas under the mean plasma radioactivity concentration-time curves up to the time of the last quantifiable sample (AUC0-t) were estimated by the linear trapezoidal rule. Areas under the mean plasma radioactivity concentration-time curves to infinite time (AUC0-inf) were calculated using the expression: AUC0-inf = AUC0-t + Ct/λz, where Ct is the last measurable concentration and λz is the elimination rate constant estimated using log-linear regression during the terminal elimination phase. Statistical evaluation was limited to basic expressions of variation such as means and standard deviation.
# [2] = QWBA tissue radioactivity, single oral 30 mg/kg, female partially pigmented rats (Group 3); Table 6 columns c2-c8 = 0.5, 2, 4, 8, 24, 72, 168 h; type: in vivo, rat; conditions: 2 h
# Procedure: The whole-body autoradiography techniques by Ullberg and Larsson was used in this study ([Ullberg and Larsson 1981]). Following a single oral administration of [^14C]-zapnometinib to seven male and seven female partially pigmented rats (Group 3) and four male albino rats (Group 4), one animal per sex (where appropriate) was killed at the following time points post dose: Group 3 (pigmented): 0.5, 2, 4, 8, 24, 72, and 168 h, Group 4 (albino): 2, 24, 72 and 168 h. At sacrifice, each rat was anaesthetized with isoflurane and a blood sample (ca 5 ml) was collected by cardiac puncture into a tube containing K2EDTA anticoagulant. Blood was centrifuged at 2000 ×g for 10 min at 4°C to obtain plasma, which was transferred into plain tubes pending measurement of radioactivity concentration. The blood cells were also retained for analysis.
# The rat carcasses were immediately attached to a plate and frozen in a bath of n-heptane and solid CO2 at ca –80°C and then stored at –20 ± 10°C until taken for sectioning. […] [^14C]-Blood standards containing six different known concentrations of radioactivity were used to construct the calibration line for the quantitative determination of tissue concentrations of radioactivity. […] The electronic images of all sections were analyzed at Labcorp–Huntingdon using a validated image analysis package (Seescan Densitometry software, version 2.0). […]
# [3] = Metabolite profiling of plasma extracts by radio-HPLC (Group 3); type: in vivo, rat; conditions: for concentration at 2 h / concentration at 8 h: rat, plasma, oral, 30 mg/kg, read-out: Concentration in plasma extract
# Procedure: Metabolite profiling was performed by HPLC analysis according to the company’s SOP of plasma (Group 3), urine (Group 2) and feces (Group 2) samples. Briefly, for metabolite profiling and identification, radioactivity (cpm) was measured in HPLC eluent fractions that had previously been collected at 12 s intervals for the duration of the run (65 min) into 96-well Deep Well LumaPlates and dried in a centrifugal evaporator. A Microbeta2 scintillation counter was used to count each plate, with wells simultaneously counted for 2 min, after an initial 5 min delay. A subsample of plasma was analyzed (ca 2 ml) taken from individual animals to provide representative samples, for each sex, at 2, 8 and 168 h post dose (n = 6). Equal proportions of the total urine weight voided from Group 2 animals was pooled to provide representative samples for each sex at 0–6 h, 6–24 h and 24–48 h post dose (n = 6). Equal proportions of the total feces homogenate generated from the samples voided by the three rats (Group 2) were pooled to provide representative samples for each sex at 0–24 and 24–48 h post dose ([…]). Sample preparation was carried out due to the company’s SOPs (see Supplementary Methods). The extractability was ≥95.0% (95.0–100%) TRR (Total Radioactive Residue) for plasma and ≥88.3% (88.3%–91.3%) TRR for feces. As reference, a standard solution of zapnometinib (0.1 mg/ml in acetonitrile) was used. To assess HPLC method suitability, a column recovery was assessed on each representative sample (one per matrix). The recovery of radioactivity from the HPLC column was determined by collecting the column eluent, following an injection of a representative sample (one per matrix), and determining the radioactive content by submitting aliquots for LSC analysis. The results of these analyses were between 93.8%–105.1% column recoveries.
# Next, radioactive metabolic components of zapnometinib in urine, plasma and feces extracts were isolated and profiled. The components were quantified by fraction collection/scintillation analysis, as appropriate to the radioactivity concentrations. Mass spectroscopy was used to propose identities of the major circulatory and excreted metabolites, and to correlate the metabolites detected in the different matrices. Components identified by LC-MS/MS were related to the quantified HPLC analysis by comparison of related radiochromatograms and comparison of elution order. Representative HPLC radiochromatograms of pooled feces extracts collected during 0–24 and 24–48 h post dose from male and female rats (which reveal the main metabolites) were qualitatively similar with some minor sex differences (Figure 3).
# [4] = Plasma protein binding assay, human plasma; type: in vitro ADME; conditions: data not shown
smiles,measurement,setting,value
"O=C(O)c1ccc(F)c(F)c1Nc1ccc(I)cc1Cl [zapnometinib, 2-(2-Chloro-4-iodophenylamino)-3,4-difluorobenzoic acid]",Mean plasma radioactivity concentration,"[1]; 48 h post dose, females",0.650 μg equivs/ml
same,Mean plasma radioactivity concentration,"[1]; 48 h post dose, males",0.724 μg equivs/ml
same,Mean plasma radioactivity concentration,"[1]; 168 h post dose, females",0.049 μg equivs/ml
same,Mean plasma radioactivity concentration,"[1]; 168 h post dose, males",0.054 μg equivs/ml
same,Plasma radioactivity at 168 h as % of Cmax,[1]; females,~0.04%
same,Plasma radioactivity at 168 h as % of Cmax,[1]; males,~0.06%
same,AUC0-t females versus males,[1]; total plasma radioactivity,1.4 fold
same,Cmax females versus males,[1]; total plasma radioactivity,1.5 fold
same,Radioactivity in all remaining tissues,[2],≤ 74.4 µg equivs/g
same,Proportion in plasma extract,"[3]; 2 hours, female rats",97.9 % sample
same,Proportion in plasma extract,"[3]; 2 hours, male rats",92.0 % sample
same,Proportion in plasma extract,"[3]; 8 hours, female rats",88.7 % sample
same,Proportion in plasma extract,"[3]; 8 hours, male rats",92.5 % sample
same,Extractability of plasma radioactivity,[3]; all measured time points,> 90 % TRR
same,Plasma concentration of unchanged zapnometinib,[3]; by 168 h post dose,below the limit of quantification
same,concentration at 2 h,"[3]; 2 hours, female rats",78400 ng/g
same,concentration at 2 h,"[3]; 2 hours, male rats",64400 ng/g
same,concentration at 8 h,"[3]; 8 hours, female rats",80700 ng/g
same,concentration at 8 h,"[3]; 8 hours, male rats",72100 ng/g
same,Protein binding,[4],high protein binding
same,Unbound fraction,[4],very low
